For test [1], the system named is CCRF-CEM Cells. Nature of the test: 2'-deoxyguanosine potentiation assay (cell growth inhibition of CCRF-CEM cells with d-Guo). The conditions noted are these: Homo sapiens, + 2'-d-Guanosine 5.62 uM, 72 hours. In kind it is cell-based. On the procedure:
The potentiation of the cell growth inhibitory activity (cytotoxicity) of 2'-deoxyguanosine (d-Guo) by the compounds of the invention is determined as follows: CCRF-CEM cells are grown in RPMI-1640 medium. To suspension cultures of these cells, d-Guo at a fixed concentration (5.62 μM) and the candidate PNP inhibitor at varied concentrations are added and the number of cells are determined in a Coulter counter 24, 48, and 72 hours thereafter. […] This method is similar to that previously used to determine the effectiveness of PNP inhibitors on potentiation of the toxicity of d-Guo [D. A. Shewach et al., Cancer Res., 46, 519 (1986); J. C. Sircar et al., Agents and Actions, 21, 253 (1987)].

In test [2] the test system is plasma inosine. The test can be described thus: Effects on blood plasma levels of inosine in rats. In kind it is in vivo, Lewis rats. The conditions noted are these: i.p.; for Inosine Concentration: rat, 4 mg/kg. The procedure:
An effective method of evaluating in vivo effects of PNP inhibitors is to evaluate the level of plasma nucleosides following the administration of inhibitor. In particular, it has been shown that certain PNP inhibitors, which increase blood plasma levels of inosine, were subsequently found to prolong skin allograf survival.
Control groups are used which receive only the vehicle. At specific times after administration, the animals are sacrificed and plasma samples are prepared. The plasma is extracted with cold 0.5 N HClO4 and neutralized with solid NH4 HCO3. After removal of perchlorate salts, the extract is subjected to HPLC on a reversed phase column (Spherisorb ODSI).

Test [3] deals with T1, PNP (Calf spleen) (Bos taurus, UniProt P55859).
T1 construct: using calf spleen as the enzyme source; from tissue; host or cells: calf spleen
T1 sequence (P55859 1-289): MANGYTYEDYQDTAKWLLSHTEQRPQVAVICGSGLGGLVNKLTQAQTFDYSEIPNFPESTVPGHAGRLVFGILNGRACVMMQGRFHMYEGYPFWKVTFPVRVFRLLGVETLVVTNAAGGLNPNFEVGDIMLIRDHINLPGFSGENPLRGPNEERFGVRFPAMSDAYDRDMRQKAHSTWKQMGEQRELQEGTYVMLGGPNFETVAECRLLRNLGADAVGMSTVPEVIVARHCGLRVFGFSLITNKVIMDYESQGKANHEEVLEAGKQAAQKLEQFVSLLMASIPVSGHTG
Nature of the test: in vitro PNP inhibition assay (radiochemical, [14C]-hypoxanthine formation from [14C]-inosine). It is filed as biochemical.

The mark [4] stands for this setting: 8-unsubstituted compounds, calf spleen enzyme, 50 mM phosphate, read-out: PNP (Calf spleen) IC50.
[5] abbreviates: read-out: PNP (Calf spleen) IC50.
[6] abbreviates: 8-amino-substituted comparison compounds.

Where two headings read alike, the source gives them in different places.

In general, IC50 refers to the concentration that inhibits the measured activity by half. Regarding `Nc1nc2c(Cc3ccccc3)c[nH]c2c(=O)[nH]1` [Example 2c, 2-Amino-3,5-dihydro-7-(phenylmethyl)-4H-pyrrolo-[3,2-d]pyrimidin-4-one], the 50% inhibitory concentration (IC50) in test [1] (8-unsubstituted compounds) was determined as 600 nM. In addition, the “increase in plasma inosine” value in test [2] (Lewis rats, summary in words) was “significant increase in plasma inosine”. In addition, the “Inosine Concentration” value in test [2] (0.50 hrs, Exp 1) came to 3 μMO; in test [2] (0.50 hrs, Exp 3), 10 μMO; in test [2] (1.0 hrs, Exp 1), 7 μMO; in test [2] (1.0 hrs, Exp 3), 7 μMO; in test [2] (1.5 hrs, Exp 3), 6 μMO; in test [2] (1.5 hrs, Exp 7, listed as SRI 7109, 4 mg/kg), 6 μMO. Further, the “Inosine Concentration” value is 4 μMO in test [2] (2.0 hrs, Exp 3); 4 μMO in test [2] (3.0 hrs, Exp 1); 6 μMO in test [2] (3.0 hrs, Exp 3); 6 μMO in test [2] (3.0 hrs, Exp 7, listed as SRI 7109, 4 mg/kg); 3 μMO in test [2] (4.0 hrs, Exp 2); 2 μMO in test [2] (5.0 hrs, Exp 2). Moreover, the “Inosine Concentration” value in test [2] (6.0 hrs, Exp 2) was 0.5 μMO; in test [2] (8.0 hrs, Exp 2), 0.6 μMO; in test [2] (10.0 hrs, Exp 2) it was 0.3 μMO; in test [2] (24 hrs, Exp 1), 0.3 μMO.
On to `Nc1nc2c(Cc3ccccc3O)c[nH]c2c(=O)[nH]1` [Example 3c, 2-amino-3,5-dihydro-7-(2-hydroxyphenylmethyl)-4H-pyrrolo[3,2-d]pyrimidin-4-one], for which the half-inhibitory concentration (IC50) in test [3] (setting [4]) amounted to 1950 nM.
As for `Nc1nc2c(Cc3ccco3)c[nH]c2c(=O)[nH]1` [Example 2j, 2-Amino-3,5-dihydro-7-(2-furanylmethyl)-4H-pyrrolo-[3,2-d]pyrimidin-4-one], the half-maximal inhibitory concentration (IC50) in test [1] (8-unsubstituted compounds) stood at 2300 nM; in test [3] (setting [5]), 310 nM.
Take `Nc1nc2c(Cc3cccc(C(F)(F)F)c3)c[nH]c2c(=O)[nH]1` [Example 2h, 2-Amino-3,5-dihydro-7-(3-trifluoromethylphenylmethyl)-4H-pyrrolo[3,2-d]pyrimidin-4-one]: the IC50 in test [3] (setting [4]) was determined as 250 nM.
The same measure, in the same setting: the same measure for `Nc1nc(O)c2[nH]cc(Cc3ccccc3Cl)c2n1` [Example 2m, 2-Amino-3,5-dihydro-7-(2-chlorophenylmethyl)-4H-pyrrolo[3,2-d]pyrimidin-4-one]: 2300 nM.
On to `Nc1nc2c(Cc3ccc(Cl)cc3)c[nH]c2c(=O)[nH]1` [Example 2d, 2-Amino-3,5-dihydro-7-(4-chlorophenylmethyl)-4H-pyrrolo[3,2-d]pyrimidin-4-one], for which, in test [1] (8-unsubstituted compounds), the concentration for half-maximal inhibition (IC50) is 700 nM.
The same measure, in the same setting: with `Nc1nc2c(Cc3cccc(O)c3)c[nH]c2c(=O)[nH]1` [Example 3b, 2-amino-3,5-dihydro-7-(3-hydroxyphenylmethyl)-4H-pyrrolo[3,2-d]pyrimidin-4-one] the figure was 1700 nM.
As to `Nc1nc2c(Cc3ccccc3)c(N)[nH]c2c(=O)[nH]1` [Phenyl, reference compound], the 50% inhibitory concentration (IC50) in test [1] (setting [6]) was over 15000 nM; in test [3], 7700 nM.
`Nc1nc2c(Cc3ccsc3)c[nH]c2c(=O)[nH]1` [Example 2l, 2-Amino-3,5-dihydro-7-(3-thienylmethyl)-4H-pyrrolo-[3,2-d]pyrimidin-4-one]: the half-maximal inhibitory concentration (IC50) in test [1] (8-unsubstituted compounds) turned out to be 2000 nM; in test [3] (setting [5]), 80 nM.
In the case of `Nc1nc2c(Cc3ccc(Cl)c(Cl)c3)c[nH]c2c(=O)[nH]1` [Example 2i, 2-Amino-3,5-dihydro-7-(3,4-dichlorophenylmethyl)-4H-pyrrolo[3,2-d]pyrimidin-4-one], the IC50 in test [3] (setting [4]) turned out to be 1000 nM.
Consider `Nc1nc2c(Cc3cccc(Cl)c3)c[nH]c2c(=O)[nH]1` [Example 1, 2-amino-3,5-dihydro-7-(3-chlorophenylmethyl)-4H-pyrrolo[3,2d-]pyrimidin-4-one], for which the values for the half-inhibitory concentration (IC50) in test [1] (8-unsubstituted compounds) and in test [3] were 800 nM and 140 nM, respectively.
Consider `Nc1nc2c(Cc3cccs3)c[nH]c2c(=O)[nH]1` [Example 2k, 2-Amino-3,5-dihydro-7-(2-thienylmethyl)-4H-pyrrolo-[3,2-d]pyrimidin-4-one], for which the IC50 in test [1] (8-unsubstituted compounds) worked out at 300 nM.
Consider `Nc1nc2c(Cc3ccsc3)c(N)[nH]c2c(=O)[nH]1` [Example 3-Thienyl, reference compound], for which, in test [1] (setting [6]), the half-inhibitory concentration (IC50) was over 20000 nM.
